# Test results reported in patent US12545896B2, “Growth inhibitor” (Orizuru Therapeutics, Inc., priority 2019, dated 2026).
# What was measured:
# [1] = system: insulin-producing cell population obtained by the differentiation from iPS cells (CHGA-negative cells; insulin-positive and NKX6.1-positive cells); experiment: Flow cytometry of insulin-producing cell population treated with PLK inhibitor for last 4 days of differentiation (Example 1); type: cell-based; conditions: 3 μM; for Proportion of CHGA-negative and Ki67-negative cells / Proportion of CHGA-negative and Ki67-positive cells / Proportion of insulin-positive and NKX6.1-positive cells: 4 days treatment, flow cytometry
# Source text: The number of CHGA-negative (and Ki67-positive or Ki67-negative) cells in the cell population obtained by each of the above methods 1) and 2) was counted by flow cytometry to determine the proportion of unintended cells, that is, a CHGA-negative (and Ki67-positive or Ki67-negative) rate, in each cell population.
# The number of insulin-positive and NKX6.1-positive cells in the cell population obtained by each of the above methods 1) and 2) was counted by flow cytometry to determine the proportion of the cells of interest, that is, insulin-positive and NKX6.1-positive cells, in each method.
# [2] = system: insulin-producing cell population obtained by the differentiation from iPS cells (CHGA-negative cells; insulin-positive and NKX6.1-positive cells); experiment: Insulin-producing cell population treated with PLK inhibitor for 7 days in 30 mL reactor for culture (Example 2); type: cell-based; conditions: 3 μM, 7 days treatment
# Procedure: Specifically, the endocrine progenitor cell population obtained by the differentiation from iPS cells was cultured for 4 days in a medium for induction of differentiation in a 30 mL reactor for culture and thereby differentiated into an insulin-producing cell population.
# For a control, the endocrine progenitor cell population obtained by the differentiation from iPS cells was cultured for 11 days in a medium for induction of differentiation in a 30 mL reactor for culture and thereby differentiated into an insulin-producing cell population.
# [3] = last 4 days of differentiation into insulin-producing cells
compound,measurement,setting,value
"COc1ccc2c(c1)[C@@]1(C[C@@H]1c1ccc3c(/C=C/c4ccc(CN5C[C@@H](C)O[C@@H](C)C5)cc4)n[nH]c3c1)C(=O)N2 [CAS1338800-06-8, (1S,2R)-2-[3-[(1E)-2-[4-[[(2R,6S)-2,6-dimethyl-4-morpholinyl]methyl]phenyl]ethenyl]-1H-indazol-6-yl]-5′-methoxy-spiro[cyclopropane-1,3′-[^3H]indol]-2′(1′H)-one]",Proportion of CHGA-negative and Ki67-negative cells,[1]; first experiment,11.4%
same,Proportion of CHGA-negative and Ki67-positive cells,[1]; first experiment,0.8%
same,Proportion of insulin-positive and NKX6.1-positive cells,[1]; first experiment,22.4%
same,Proportion of CHGA-negative and Ki67-negative cells,[1]; second experiment,12.4%
same,Proportion of CHGA-negative and Ki67-positive cells,[1]; second experiment,0.2%
same,Proportion of insulin-positive and NKX6.1-positive cells,[1]; second experiment,23.0%
same,Proportion of CHGA-negative cells (both Ki67-positive and Ki67-negative) as compared with a control,[1]; [3],markedly decreased
same,Proportion of the cells of interest (insulin-positive and NKX6.1-positive cells) as compared with a control,[1]; [3],markedly increased
same,Proportion of CHGA-negative cells (both Ki67-positive and Ki67-negative) as compared with a control,[2],markedly decreased
same,Proportion of insulin-positive (and NKX6.1-positive) cells as compared with a control,[2],markedly increased
